Here are results for two compounds from patent US4913891A, “Positron emitter labeled enzyme inhibitors” (The United States of America as represented by the United …, priority 1987, dated 1990).

The nature of data set [1]: Integrated plasma activity for the 30-minute period after tracer injection. It counts as in vivo, human. The conditions noted are these: 30-minute period after injection. The source says:
Integrated plasma activity
for the 30-minute time period after injection is also presented.

A further data set concerns monoamine oxidase. The data set is described as follows: PET in baboons, double injection with intervening high dose of unlabeled compound. It counts as in vivo. The conditions noted are these: baboon pretreated with L-deprenyl, some brain regions.
A further data set has as its target T1, MAO A (Mus musculus, UniProt Q64133).
T1 sequence (Q64133 1-526): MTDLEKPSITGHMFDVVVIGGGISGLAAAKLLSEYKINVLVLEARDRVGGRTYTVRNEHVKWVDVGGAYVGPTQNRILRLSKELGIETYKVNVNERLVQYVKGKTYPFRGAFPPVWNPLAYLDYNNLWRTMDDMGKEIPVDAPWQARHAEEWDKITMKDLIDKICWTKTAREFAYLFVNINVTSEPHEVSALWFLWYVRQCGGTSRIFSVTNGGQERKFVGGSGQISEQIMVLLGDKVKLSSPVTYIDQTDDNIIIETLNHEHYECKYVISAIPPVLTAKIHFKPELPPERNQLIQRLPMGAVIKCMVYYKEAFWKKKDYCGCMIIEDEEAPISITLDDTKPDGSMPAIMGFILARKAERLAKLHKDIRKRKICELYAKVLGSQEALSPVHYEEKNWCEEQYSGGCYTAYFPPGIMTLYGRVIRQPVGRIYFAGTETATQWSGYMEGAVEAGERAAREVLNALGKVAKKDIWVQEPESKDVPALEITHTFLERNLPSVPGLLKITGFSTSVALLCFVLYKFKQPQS
The conditions noted are these: for Effect of cross pretreatment on tracer distribution: mice pretreated with unlabeled L-deprenyl 10 mg/kg i.p. one hour before tracer. The procedure:
Organs were rapidly removed, blotted free of blood, placed in preweighed counting vials, and counted, along with injection standards, in a sodium iodide well counter.
For the determination of protein binding, freshly excised brains were minced in preweighed centrifuge tubes containing 2 ml 0.4% HClO4 […], weighed, counted, diluted with 1 ml HClO4 and 1 ml methanol, and homogenized by ultrasonication. After centrifugation and decantation, the pellets were resuspended in 3 ml methanol, sonicated, and recentrifuged. The combined supernatants and pellet were counted in a sodium iodide well counter. […] Because of the short half-life of C-11, corrections for the decay of the isotope were calculated to a standard time (end of cyclotron bombardment) for all data.
For pretreatment experiments, mice were given intraperitoneal injections of unlabeled clorgyline or L-deprenyl (10 mg/kg) one hour before the administration of the [^11 C]-tracer.

Setting [2] is: study 5, subject receiving phenelzine plus amphetamine.

Where two headings read alike, the source gives them in different places.

`C#CCN([11CH3])[C@H](C)Cc1ccccc1` [[^11 C]-L-deprenyl]: the Integrated plasma activity is 1818 nCi ml min in data set [1] (study 1, normal volunteer); 2295 nCi ml min in data set [1] (study 2, normal volunteer); 1018 nCi ml min in data set [1] (study 3, normal volunteer); 1618 nCi ml min in data set [1] (study 4, normal volunteer); 2776 nCi ml min in data set [1] (setting [2]). Also, the “Reduction of brain radioactivity due to tracer after pretreatment” value with monoamine oxidase is recorded as not above 80%.
Consider `C#CCN([11CH3])CCCOc1ccc(Cl)cc1Cl` [[^11 C]clorgyline], for which the Integrated plasma activity was determined as 2329 nCi ml min in data set [1] (study 1, normal volunteer); 3206 nCi ml min in data set [1] (study 2, normal volunteer); 3260 nCi ml min in data set [1] (study 3, normal volunteer); 3611 nCi ml min in data set [1] (study 4, normal volunteer); 3965 nCi ml min in data set [1] (setting [2]). Also, the “Effect of cross pretreatment on tracer distribution” value is reported as “did not significantly alter from control” at MAO A and “no effect” at MAO A (listed as [^11 C]Clorgyline). Further, the “Brain uptake compared with the other tracer” value at MAO A (mouse brain, control and pretreated mice) is “slight but consistently higher uptake than L-deprenyl”.
